From the supplement of paper PMC4862054

Experiments:
Settings in all cases: incubation time: 72 h
HCC1599 [1] = assay: normalised response (% of control), CellTox Green; higher = less cell death (100 = DMSO, 0 = benzethonium chloride kill control)
How it was run: (§1)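 Plates were normalised with 0.1 % DMSO as 100 and a positive kill control as 0. Breast cancer cell lines in 20 µl suspension had been seeded into 384-well plates with compound at 5 concentrations in 10-fold steps over a compound-specific 10,000-fold range, incubated 72 h, and read for CellTox Green fluorescence (485/520 nm) followed by CellTiter-Glo luminescence. Each value is the normalised signal at a single concentration.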

HDQ-P1 [2] = assay: as above
How it was run: as §1

MDA-MB-453 [3] = assay: as above
How it was run: as §1

BT-549 [4] = assay: as above
How it was run: as §1

MDA-MB-468 [5] = assay: as above
How it was run: as §1

CAL-85-1 [6] = assay: as above
How it was run: as §1

MDA-MB-436 = assay: as above
How it was run: as §1

DU-4475 [7] = assay: as above
How it was run: as §1

BT-474 [8] = assay: as above
How it was run: as §1

MCF-10A [9] = assay: as above
How it was run: as §1

CAL-120 = assay: as above
How it was run: as §1

MDA-MB-231 [10] = assay: as above
How it was run: as §1

HCC1937 [11] = assay: as above
How it was run: as §1

Hs578T [12] = assay: as above
How it was run: as §1

HCC1599 [13] = assay: drug sensitivity score (DSS), CellTox Green (DSS (AUC-based score)); higher = stronger drug effect (viability inhibition or cytotoxicity); extreme values may be limits of the assay
How it was run: (§2)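 The drug sensitivity score was computed from the area under the fitted dose-response curve. Breast cancer cell lines in 20 µl suspension went into 384-well plates holding compound at 5 concentrations (10-fold steps over a 10,000-fold, compound-specific range) for 72 h of incubation. CellTox Green fluorescence (485/520 nm) was read before CellTiter-Glo luminescence, the latter after 10 min at room temperature, and each plate was normalised to 0.1 % DMSO and a positive kill control.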

HDQ-P1 [14] = assay: as above
How it was run: as §2

MDA-MB-453 [15] = assay: as above
How it was run: as §2

BT-549 [16] = assay: as above
How it was run: as §2

HCC1143 = assay: as above
How it was run: as §2

MDA-MB-468 [17] = assay: as above
How it was run: as §2

CAL-85-1 [18] = assay: as above
How it was run: as §2

DU-4475 [19] = assay: as above
How it was run: as §2

CAL-148 = assay: as above
How it was run: as §2

BT-474 [20] = assay: as above
How it was run: as §2

MCF-10A [21] = assay: as above
How it was run: as §2

MDA-MB-231 [22] = assay: as above
How it was run: as §2

HCC1937 [23] = assay: as above
How it was run: as §2

Hs578T [24] = assay: as above
How it was run: as §2

`NC1(c2ccc(-c3nc4ccn5c(=O)[nH]nc5c4cc3-c3ccccc3)cc2)CCC1` [MK-2206] (1000 nM) was tested, and the normalised response (HCC1599 [1]) was 117%, the normalised response (HDQ-P1 [2]) was 109% and the normalised response (MDA-MB-453 [3]) was 96.7%. For the same molecule, the normalised response (BT-549 [4]) was 122%, the normalised response (MDA-MB-468 [5]) was 147% and the normalised response (CAL-85-1 [6]) was 69%. The normalised response (MDA-MB-436) was 112%, the normalised response (DU-4475 [7]) was 109% and the normalised response (BT-474 [8]) was 99.2%. For the same molecule, the normalised response (MCF-10A [9]) was 104%, the normalised response (CAL-120) was 97.8% and the normalised response (MDA-MB-231 [10]) was 106%. The normalised response (HCC1937 [11]) was 108% and the normalised response (Hs578T [12]) was 82.1%.
`O=C(c1cc(Cc2n[nH]c(=O)c3ccccc23)ccc1F)N1CCN(C(=O)C2CC2)CC1` [Olaparib] (10000 nM) showed a normalised response (HCC1599 [1]) of 99.2%, a normalised response (MDA-MB-453 [3]) of 109% and a normalised response (BT-549 [4]) of 102%. For the same molecule, the normalised response (MDA-MB-468 [5]) was 112%, the normalised response (CAL-85-1 [6]) was 105% and the normalised response (MDA-MB-436) was 44%. The normalised response (DU-4475 [7]) was 98.5%, the normalised response (BT-474 [8]) was 96.4% and the normalised response (MCF-10A [9]) was 94.8%. The normalised response (CAL-120) was 94.8%, the normalised response (MDA-MB-231 [10]) was 35.9% and the normalised response (HCC1937 [11]) was 99.8%. The normalised response (Hs578T [12]) was 96.5%.
`COc1cc2c(N3CCN(C(=O)Nc4ccc(OC(C)C)cc4)CC3)ncnc2cc1OCCCN1CCCCC1` [Tandutinib] (1000 nM) showed a normalised response (HCC1599 [1]) of 100%, a normalised response (HDQ-P1 [2]) of 97.1% and a normalised response (MDA-MB-453 [3]) of 101%. For the same molecule, the normalised response (BT-549 [4]) was 108%, the normalised response (MDA-MB-468 [5]) was 120% and the normalised response (CAL-85-1 [6]) was 105%. The normalised response (MDA-MB-436) was 86.9%, the normalised response (DU-4475 [7]) was 98.6% and the normalised response (BT-474 [8]) was 100%. For the same molecule, the normalised response (MCF-10A [9]) was 93.5%, the normalised response (CAL-120) was 96.2% and the normalised response (MDA-MB-231 [10]) was 99.1%. For the same molecule, the normalised response (HCC1937 [11]) was 93.2% and the normalised response (Hs578T [12]) was 122%.
`C[C@@H](C(=O)O)c1ccc(-c2ccccc2)c(F)c1` [Tarenflurbil] (10000 nM) was tested, and the normalised response (HCC1599 [1]) was 102%, the normalised response (HDQ-P1 [2]) was 110% and the normalised response (MDA-MB-453 [3]) was 103%. The normalised response (BT-549 [4]) was 101%, the normalised response (MDA-MB-468 [5]) was 153% and the normalised response (CAL-85-1 [6]) was 110%. For the same molecule, the normalised response (MDA-MB-436) was 90%, the normalised response (DU-4475 [7]) was 101% and the normalised response (BT-474 [8]) was 88.4%. It also gave a normalised response (CAL-120) of 91.1%, a normalised response (MDA-MB-231 [10]) of 99.9% and a normalised response (HCC1937 [11]) of 109%.
Molecule `CCc1c(C(=O)C(N)=O)c2c(OCC(=O)O)cccc2n1Cc1ccccc1` [Varespladib] has a drug sensitivity score (HCC1599 [13]) of 0, a drug sensitivity score (HDQ-P1 [14]) of 0 and a drug sensitivity score (MDA-MB-453 [15]) of 0. For the same molecule, the drug sensitivity score (BT-549 [16]) was 0, the drug sensitivity score (HCC1143) was 0 and the drug sensitivity score (MDA-MB-468 [17]) was 0. For the same molecule, the drug sensitivity score (CAL-85-1 [18]) was 0, the drug sensitivity score (DU-4475 [19]) was 0 and the drug sensitivity score (CAL-148) was 0. For the same molecule, the drug sensitivity score (BT-474 [20]) was 0, the drug sensitivity score (MCF-10A [21]) was 0 and the drug sensitivity score (MDA-MB-231 [22]) was 0. For the same molecule, the drug sensitivity score (HCC1937 [23]) was 0 and the drug sensitivity score (Hs578T [24]) was 0.
